Assay results: patent publication US10131652B2, “Pyrimidinyloxy benzene derivatives as herbicides” (E. I. DU PONT DE NEMOURS AND COMPANY, priority 2014, dated 2018)

Legend:
Type in all cases: in vivo
[1] = system: pigweed (Amaranthus retroflexus); assay: Test B pre-/postemergence plant response
Summary of the method: (§1)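 Seeds in loam–sand blend given preemergence soil spray; separately, plants at one- to two-leaf stage (2–10 cm) sprayed postemergence, compounds in non-phytotoxic solvent with surfactant. Injury rated visually versus untreated controls after ~10 days in greenhouse, 0 (no effect) to 100 (complete control).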

[2] = system: large (Lg) crabgrass (Digitaria sanguinalis); assay: Test B pre-/postemergence plant response
Summary of the method: as §1

[3] = system: velvetleaf (Abutilon theophrasti); assay: Test B pre-/postemergence plant response
Summary of the method: as §1

[4] = system: barnyardgrass (Echinochloa crus-galli); assay: Test B pre-/postemergence plant response
Summary of the method: as §1

[5] = system: wheat (Triticum aestivum); assay: Test B pre-/postemergence plant response
Summary of the method: as §1

[6] = system: morningglory (Ipomoea spp.); assay: Test B pre-/postemergence plant response
Summary of the method: as §1

[7] = system: corn (Zea mays); assay: Test B pre-/postemergence plant response
Summary of the method: as §1

[8] = system: giant foxtail (Setaria faberii); assay: Test B pre-/postemergence plant response
Summary of the method: as §1

[9] = system: small-flower umbrella sedge (Cyperus difformis); assay: Test C flooded paddy test plant response; conditions: Flood, 250 g ai/ha; scale of 0 to 100 where 0 is no effect and 100 is complete control; 13 to 15 days
Summary of the method: (§2)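 Readout is a visual 0–100 score (100 = complete control) versus controls at 13–15 days. Plants at 2-leaf stage, flooded to 3 cm, treated through paddy water.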

[10] = system: barnyardgrass (Echinochloa crus-galli); assay: Test C flooded paddy test plant response; conditions: Flood, 250 g ai/ha; scale of 0 to 100 where 0 is no effect and 100 is complete control; 13 to 15 days
Summary of the method: as §2

[11] = system: rice (Oryza sativa); assay: Test C flooded paddy test plant response; conditions: Flood, 250 g ai/ha; scale of 0 to 100 where 0 is no effect and 100 is complete control; 13 to 15 days
Summary of the method: as §2

[12] = system: ducksalad (Heteranthera limosa); assay: Test C flooded paddy test plant response; conditions: Flood, 250 g ai/ha; scale of 0 to 100 where 0 is no effect and 100 is complete control; 13 to 15 days
Summary of the method: as §2

[13] = 125 g ai/ha, postemergence, 0 to 100 scale, 0 no effect, 100 complete control
[14] = Postemergence, 500 g ai/ha, 0 to 100 scale (0 no effect, 100 complete control)
[15] = Preemergence, 125 g ai/ha, 0 to 100 scale where 0 is no effect and 100 is complete control
[16] = Preemergence, 500 g ai/ha, 0 to 100 scale where 0 is no effect and 100 is complete control
[17] = 500 g ai/ha, postemergence, 0 to 100 scale, 0 no effect, 100 complete control
[18] = Preemergence, 125 g ai/ha, 0 to 100 scale (0 no effect, 100 complete control)
[19] = Postemergence, 1000 g ai/ha, 0 to 100 scale (0 no effect, 100 complete control)
[20] = Preemergence, 500 g ai/ha, 0 to 100 scale (0 no effect, 100 complete control)
[21] = Preemergence, 1000 g ai/ha, 0 to 100 scale (0 no effect, 100 complete control)

SMILES: FC(F)(F)c1cc(-c2ccccc2Oc2ncc(Br)cn2)on1 [Compound 64]
- Plant response rating, Pigweed [1, 13]: 100
- Plant response rating, Pigweed [1, 14]: 100
- Plant response rating, Pigweed [1, 15]: 100
- Plant response rating, Pigweed [1, 16]: 100
- Plant response rating, Crabgrass, Large [2, 13]: 60
- Plant response rating, Crabgrass, Large [2, 14]: 90
- Plant response rating, Crabgrass, Large [2, 15]: 100
- Plant response rating, Crabgrass, Large [2, 16]: 100
- Plant response rating, Velvetleaf [3, 13]: 100
- Plant response rating, Velvetleaf [3, 14]: 100
- Plant response rating, Velvetleaf [3, 15]: 80
- Plant response rating, Velvetleaf [3, 16]: 90
- Plant response rating, Barnyardgrass [4, 13]: 90
- Plant response rating, Barnyardgrass [4, 14]: 100
- Plant response rating, Barnyardgrass [4, 15]: 60
- Plant response rating, Barnyardgrass [4, 16]: 100
- Plant response rating, Wheat [5, 13]: 0
- Plant response rating, Wheat [5, 14]: 10
- Plant response rating, Wheat [5, 15]: 0
- Plant response rating, Wheat [5, 16]: 30
- Plant response rating, Morningglory [6, 13]: 70
- Plant response rating, Morningglory [6, 14]: 100
- Plant response rating, Morningglory [6, 15]: 0
- Plant response rating, Morningglory [6, 16]: 60
- Plant response rating, Corn [7, 13]: 20
- Plant response rating, Corn [7, 14]: 30
- Plant response rating, Corn [7, 15]: 0
- Plant response rating, Corn [7, 16]: 20
- Plant response rating, Foxtail, Giant [8, 13]: 60
- Plant response rating, Foxtail, Giant [8, 14]: 80
- Plant response rating, Foxtail, Giant [8, 15]: 90
- Plant response rating, Foxtail, Giant [8, 16]: 100
- Sedge, Umbrella plant response rating [9]: 80
- Barnyardgrass plant response rating [10]: 35
- Rice plant response rating [11]: 0
- Ducksalad plant response rating [12]: 95

SMILES: N#Cc1cccc(Oc2ncc(Cl)cn2)c1-c1ccc(Cl)cn1 [Compound 202]
- Plant response rating, Pigweed [1, 13]: 90
- Plant response rating, Pigweed [1, 17]: 100
- Pigweed plant response rating [1, 18]: 100
- Plant response rating, Pigweed [1, 16]: 100
- Plant response rating, Crabgrass, Large [2, 13]: 10
- Plant response rating, Crabgrass, Large [2, 17]: 70
- Crabgrass, Large plant response rating [2, 18]: 90
- Plant response rating, Crabgrass, Large [2, 16]: 100
- Plant response rating, Velvetleaf [3, 13]: 10
- Plant response rating, Velvetleaf [3, 17]: 30
- Velvetleaf plant response rating [3, 18]: 0
- Plant response rating, Velvetleaf [3, 16]: 60
- Plant response rating, Barnyardgrass [4, 13]: 10
- Plant response rating, Barnyardgrass [4, 17]: 40
- Barnyardgrass plant response rating [4, 18]: 10
- Plant response rating, Barnyardgrass [4, 16]: 80
- Plant response rating, Wheat [5, 13]: 0
- Plant response rating, Wheat [5, 17]: 0
- Wheat plant response rating [5, 18]: 0
- Plant response rating, Wheat [5, 16]: 20
- Plant response rating, Morningglory [6, 13]: 10
- Plant response rating, Morningglory [6, 17]: 40
- Morningglory plant response rating [6, 18]: 0
- Plant response rating, Morningglory [6, 16]: 20
- Plant response rating, Corn [7, 13]: 0
- Plant response rating, Corn [7, 17]: 30
- Corn plant response rating [7, 18]: 0
- Plant response rating, Corn [7, 16]: 0
- Plant response rating, Foxtail, Giant [8, 13]: 30
- Plant response rating, Foxtail, Giant [8, 17]: 80
- Foxtail, Giant plant response rating [8, 18]: 70
- Plant response rating, Foxtail, Giant [8, 16]: 100
- Sedge, Umbrella plant response rating [9]: 80
- Barnyardgrass plant response rating [10]: 0
- Rice plant response rating [11]: 0
- Ducksalad plant response rating [12]: 80

SMILES: Cn1ccc(-c2ccccc2Oc2ncc(Cl)cn2)n1 [Compound 10]
- Plant response rating, Pigweed [1, 13]: 0
- Plant response rating, Pigweed [1, 14]: 20
- Plant response rating, Pigweed [1, 19]: 50
- Plant response rating, Pigweed [1, 15]: 0
- Plant response rating, Pigweed [1, 20]: 30
- Plant response rating, Pigweed [1, 21]: 10
- Plant response rating, Crabgrass, Large [2, 13]: 0
- Plant response rating, Crabgrass, Large [2, 14]: 0
- Plant response rating, Crabgrass, Large [2, 19]: 10
- Plant response rating, Crabgrass, Large [2, 15]: 0
- Plant response rating, Crabgrass, Large [2, 20]: 0
- Plant response rating, Crabgrass, Large [2, 21]: 10
- Plant response rating, Velvetleaf [3, 13]: 0
- Plant response rating, Velvetleaf [3, 14]: 20
- Plant response rating, Velvetleaf [3, 19]: 20
- Plant response rating, Velvetleaf [3, 15]: 0
- Plant response rating, Velvetleaf [3, 20]: 0
- Plant response rating, Velvetleaf [3, 21]: 0
- Plant response rating, Barnyardgrass [4, 13]: 0
- Plant response rating, Barnyardgrass [4, 14]: 0
- Plant response rating, Barnyardgrass [4, 19]: 10
- Plant response rating, Barnyardgrass [4, 15]: 0
- Plant response rating, Barnyardgrass [4, 20]: 0
- Plant response rating, Barnyardgrass [4, 21]: 0
- Plant response rating, Wheat [5, 13]: 0
- Plant response rating, Wheat [5, 14]: 0
- Plant response rating, Wheat [5, 19]: 0
- Plant response rating, Wheat [5, 15]: 0
- Plant response rating, Wheat [5, 20]: 0
- Plant response rating, Wheat [5, 21]: 0
- Plant response rating, Morningglory [6, 13]: 20
- Plant response rating, Morningglory [6, 14]: 30
- Plant response rating, Morningglory [6, 19]: 10
- Plant response rating, Morningglory [6, 15]: 0
- Plant response rating, Morningglory [6, 20]: 0
- Plant response rating, Morningglory [6, 21]: 0
- Plant response rating, Corn [7, 13]: 0
- Plant response rating, Corn [7, 14]: 0
- Plant response rating, Corn [7, 19]: 0
- Plant response rating, Corn [7, 15]: 0
- Plant response rating, Corn [7, 20]: 0
- Plant response rating, Corn [7, 21]: 0
- Plant response rating, Foxtail, Giant [8, 13]: 0
- Plant response rating, Foxtail, Giant [8, 14]: 0
- Plant response rating, Foxtail, Giant [8, 19]: 10
- Plant response rating, Foxtail, Giant [8, 15]: 0
- Plant response rating, Foxtail, Giant [8, 20]: 0
- Plant response rating, Foxtail, Giant [8, 21]: 0
- Sedge, Umbrella plant response rating [9]: 0
- Barnyardgrass plant response rating [10]: 0
- Rice plant response rating [11]: 0
- Ducksalad plant response rating [12]: 0
